# Source: patent US6605628B1, “Method of using 5-(arysulfonyl)-, 5-(arylsulfanyl)-and 5-(arylsulfanyl)thiazolidine-2,4-diones for inhibition of farnesyl-protein transferase” (Wyeth Holdings Corporation, priority 2001, dated 2003)
# Experiments:
# FPTase [1] = target: T1, FPTase (Homo sapiens, UniProt P49354+P49356); experiment: in vitro FTase Inhibition Assay, H-Ras used as substrate for farnesylation; assay type: biochemical; conditions: Table I, read-out: IC50 H-Ras*
# FPTase [2] = target: T1, FPTase; experiment: in vitro FTase Inhibition Assay, K-Ras used as substrate for farnesylation; assay type: biochemical; conditions: Table I
# [3] = test system: K-ras dependent human colon carcinoma (LoVo); experiment: in vivo effects against K-ras dependent human colon carcinoma (LoVo); conditions: for S/T = No. Survivors/No.Treated: Day +35 post tumor cell implantation
# Text: […] For the compound of example 114, when tested against a K-ras dependent human colon carcinoma (LoVo), the following results were obtained (Table III):
# [4] = 50 mg/kg per dose IP, BID days 1 through 20, control 0.5% Methocel 0.4% Tween 80
# [5] = 75 mg/kg per dose IP, BID days 1 through 20, control 0.5% Methocel 0.4% Tween 80
# [6] = 100 mg/kg per dose IP, once a day on days 1 through 20, control 0.5% Methocel 0.4% Tween 80
# [7] = 100 mg/kg per dose PO, BID days 1 through 20, control 0.5% Methocel 0.4% Tween 80
# [8] = 100 mg/kg per dose PO, BID days 1 through 20, control 20% BCD in 1.1N HCl
# [9] = 75* mg/kg per dose IP, BID days 1 through 20, prepared in 2% Tween 80 in D5W, control 2% Tween in D5W
smiles,measurement,setting,value
"COc1ccc(S(=O)(=O)C2(CCCC#Cc3ccc([N+](=O)[O-])cc3)SC(=O)NC2=O)cc1 (stereo not drawn) [Example 121, 5-(4-Methoxybenzenesulfonyl)-5-[5-(4-nitrophenyl)pent-4-ynyl]thiazolidine-2,4-dione]",IC50,FPTase [1],120 nM
same,IC50,FPTase [2],1600 nM
same,melting point,,156 to 158 °C
"COc1ccc(S(=O)(=O)C2(CCCC#Cc3ccc(C)cc3C)SC(=O)NC2=O)cc1 (stereo not drawn) [Example 136, 5-[5-(2,4-Dimethylphenyl)pent-4-ynyl]-5-(4-methoxybenzenesulfonyl)-thiazolidine-2,4-dione]",IC50,FPTase [1],43 to 50 nM
same,IC50,FPTase [2],1000 to 1900 nM
same,melting point,,155 to 156 °C
"COc1ccc(S(=O)(=O)C2(CCCC#Cc3ccc(OC(F)(F)F)cc3)SC(=O)NC2=O)cc1 (stereo not drawn) [Example 154, 5-(4-Methoxybenzenesulfonyl)-5-[5-(4-trifluoromethoxyphenyl)pent-4-ynyl]thiazolidine-2,4-dione]",IC50,FPTase [1],70 to 150 nM
same,IC50,FPTase [2],1000 to 2500 nM
same,melting point,,120 to 123 °C
"O=C1NC(=O)C(CCCC#Cc2cccc([N+](=O)[O-])c2)(S(=O)(=O)c2ccc(Oc3ccccc3)cc2)S1 (stereo not drawn) [Example 119, 5-[5-(3-Nitrophenyl)pent-4-ynyl]-5-(4-phenoxybenzenesulfonyl)thiazolidine-2,4-dione]",IC50,FPTase [1],130 to 140 nM
same,IC50,FPTase [2],1300 to 1700 nM
same,melting point,,190 to 191 °C
"COc1ccc(S(=O)(=O)C2(CCCC#Cc3cc(Cl)ccc3C)SC(=O)NC2=O)cc1 (stereo not drawn) [Example 138, 5-[5-(5-Chloro-2-methylphenyl)pent-4-ynyl]-5-(4-methoxybenzene-sulfonyl)-thiazolidine-2,4-dione]",IC50,FPTase [1],23 to 32 nM
same,IC50,FPTase [2],300 to 420 nM
same,melting point,,121 to 122 °C
"Cc1ccc(Cl)cc1C#CCCCC1(S(=O)(=O)c2ccc(OC(F)(F)F)cc2)SC(=O)NC1=O (stereo not drawn) [Example 139, 5-[5-(5-Chloro-2-methylphenyl)pent-4-ynyl]-5-(4-trifluoromethoxybenzene-sulfonyl)-thiazolidine-2,4-dione]",IC50,FPTase [1],140 to 170 nM
same,IC50,FPTase [2],600 to 5000 nM
same,melting point,,196 °C (dec.)
"O=C1NC(=O)C(CCCC#Cc2ccc(-n3cccc3)cc2)(S(=O)(=O)c2ccc(OC(F)(F)F)cc2)S1 (stereo not drawn) [Example 163, 5-[5-(4-Pyrrol-1-ylphenyl)pent-4-ynyl]-5-(4-trifluoromethoxybenzenesulfonyl)-thiazolidine-2,4-dione]",IC50,FPTase [1],1300 nM
same,melting point,,204 to 206 °C
"Cc1ccc(NC(=O)OC(C)(C)C)cc1C#CCCCC1(S(=O)(=O)c2ccc(I)cc2)SC(=O)NC1=O (stereo not drawn) [Example 148, (3-{5-[5-(4-Iodobenzenesulfonyl)-2,4-dioxothiazolidin-5-yl]-pent-1-ynyl}-4-methylphenyl)carbamic Acid tert-Butyl Ester]",IC50,FPTase [1],4.5 to 120 nM
same,IC50,FPTase [2],23 to 31 nM
same,melting point,,172 to 175 °C
"COc1ccc(S(=O)(=O)C2(CCCC#Cc3ccccc3Cl)SC(=O)NC2=O)cc1 (stereo not drawn) [Example 101, 5-[5-(2-Chlorophenyl)pent-4-ynyl]-5-(4-methoxybenzenesulfonyl)thiazolidine-2,4-dione]",IC50,FPTase [1],10 to 30 nM
same,IC50,FPTase [2],110 to 1000 nM
same,melting point,,133 to 135 °C
"COc1ccc(S(=O)(=O)C2(CCCC#Cc3cc(NC(=O)OC(C)(C)C)ccc3C)SC(=O)NC2=O)cc1 (stereo not drawn) [Example 150, (3-{5-[5-(4-Methoxybenzenesulfonyl)-2,4-dioxothiazolidin-5-yl]pent-1-ynyl}-4-methylphenyl)carbamic Acid tert-Butyl Ester]",IC50,FPTase [1],7.4 to 32 nM
same,IC50,FPTase [2],16 to 68 nM
same,melting point,,116 to 118 °C
"COc1ccc(S(=O)(=O)C2(CCCC#Cc3ccc(-n4cccc4)cc3)SC(=O)NC2=O)cc1 (stereo not drawn) [Example 161, 5-(4-Methoxybenzenesulfonyl)-5-[5-(4-pyrrol-1-yl-phenyl)pent-4-ynyl]-thiazolidine-2,4-dione]",IC50,FPTase [1],900 nM
same,melting point,,206 to 207 °C
"COC(=O)c1ccc(C#CCCCC2(S(=O)(=O)c3ccc(OC)cc3)SC(=O)NC2=O)c(C)c1 (stereo not drawn) [Example 160, 4-{5-[5-(4-Methoxybenzenesulfonyl)-2,4-dioxothiazolidin-5-yl]pent-1-ynyl}-3-methylbenzoic Acid Methyl Ester]",melting point,,128 to 130 °C
"COc1ccc(S(=O)(=O)C2(CCCCC#Cc3ccc(Cl)cc3)SC(=O)NC2=O)cc1 (stereo not drawn) [Example 98, 5-[6-(4-Chlorophenyl)hex-5-ynyl]-5-(4-methoxyphenylsulfonyl)-thiazolidine-2,4-dione]",melting point,,145 to 148 °C
"COc1ccc(S(=O)(=O)C2(CCCC#Cc3cc(Cl)ccc3Cl)SC(=O)NC2=O)cc1 (stereo not drawn) [Example 114, 5-[5-(2,5-Dichloro-phenyl)pent-4-ynyl]-5-(4-methoxy-benzenesulfonyl)-thiazolidine-2,4-dione]",IC50,FPTase [1],13 to 32 nM
same,IC50,FPTase [2],32 to 320 nM
same,"% T/C, Day8",[3]; [4],74%
same,"% T/C, Day 15",[3]; [4],47%
same,"% T/C, Day 22",[3]; [4],43%
same,"% T/C, Day 29",[3]; [4],59%
same,"% T/C, Day 36",[3]; [4],76%
same,"Mean Tumor Weight, Day8",[3]; [4],65 mg
same,"Mean Tumor Weight, Day 15",[3]; [4],146 mg
same,"Mean Tumor Weight, Day 22",[3]; [4],258 mg
same,"Mean Tumor Weight, Day 29",[3]; [4],445 mg
same,"Mean Tumor Weight, Day 36",[3]; [4],964 mg
same,S/T = No. Survivors/No.Treated,[3]; [4],5/10
same,"% T/C, Day8",[3]; [5],51%
same,"% T/C, Day 15",[3]; [5],36%
same,"% T/C, Day 22",[3]; [5],43%
same,"% T/C, Day 29",[3]; [5],67%
same,"% T/C, Day 36",[3]; [5],60%
same,"Mean Tumor Weight, Day8",[3]; [5],45 mg
same,"Mean Tumor Weight, Day 15",[3]; [5],110 mg
same,"Mean Tumor Weight, Day 22",[3]; [5],255 mg
same,"Mean Tumor Weight, Day 29",[3]; [5],504 mg
same,"Mean Tumor Weight, Day 36",[3]; [5],764 mg
same,S/T = No. Survivors/No.Treated,[3]; [5],8/10
same,"% T/C, Day8",[3]; [6],35%
same,"% T/C, Day 15",[3]; [6],41%
same,"% T/C, Day 22",[3]; [6],42%
same,"% T/C, Day 29",[3]; [6],46%
same,"% T/C, Day 36",[3]; [6],44%
same,"Mean Tumor Weight, Day8",[3]; [6],31 mg
same,"Mean Tumor Weight, Day 15",[3]; [6],125 mg
same,"Mean Tumor Weight, Day 22",[3]; [6],251 mg
same,"Mean Tumor Weight, Day 29",[3]; [6],341 mg
same,"Mean Tumor Weight, Day 36",[3]; [6],559 mg
same,S/T = No. Survivors/No.Treated,[3]; [6],9/10
same,"% T/C, Day8",[3]; [7],70%
same,"% T/C, Day 15",[3]; [7],77%
same,"% T/C, Day 22",[3]; [7],76%
same,"% T/C, Day 29",[3]; [7],81%
same,"% T/C, Day 36",[3]; [7],74%
same,"Mean Tumor Weight, Day8",[3]; [7],61 mg
same,"Mean Tumor Weight, Day 15",[3]; [7],238 mg
same,"Mean Tumor Weight, Day 22",[3]; [7],454 mg
same,"Mean Tumor Weight, Day 29",[3]; [7],608 mg
same,"Mean Tumor Weight, Day 36",[3]; [7],934 mg
same,S/T = No. Survivors/No.Treated,[3]; [7],10/10
same,"% T/C, Day8",[3]; [8],81%
same,"% T/C, Day 15",[3]; [8],95%
same,"% T/C, Day 22",[3]; [8],88%
same,"% T/C, Day 29",[3]; [8],128%
same,"% T/C, Day 36",[3]; [8],107%
same,"Mean Tumor Weight, Day8",[3]; [8],50 mg
same,"Mean Tumor Weight, Day 15",[3]; [8],138 mg
same,"Mean Tumor Weight, Day 22",[3]; [8],299 mg
same,"Mean Tumor Weight, Day 29",[3]; [8],641 mg
same,"Mean Tumor Weight, Day 36",[3]; [8],872 mg
same,S/T = No. Survivors/No.Treated,[3]; [8],9/10
same,"% T/C, Day8",[3]; [9],221%
same,"% T/C, Day 15",[3]; [9],150%
same,"% T/C, Day 22",[3]; [9],163%
same,"% T/C, Day 29",[3]; [9],167%
same,"% T/C, Day 36",[3]; [9],157%
same,"Mean Tumor Weight, Day8",[3]; [9],86 mg
same,"Mean Tumor Weight, Day 15",[3]; [9],182 mg
same,"Mean Tumor Weight, Day 22",[3]; [9],324 mg
same,"Mean Tumor Weight, Day 29",[3]; [9],478 mg
same,"Mean Tumor Weight, Day 36",[3]; [9],666 mg
same,S/T = No. Survivors/No.Treated,[3]; [9],10/10
"COc1ccc(SC2(CCCCCCCCCC#Cc3ccc(Cl)cc3)SC(=O)NC2=O)cc1 (stereo not drawn) [Example 94, 5-[11-(4-Chlorophenyl)undec-10-ynyl]-5-(4-methoxy-phenylsulfanyl)-thiazolidine-2,4-dione]",melting point,,54 to 56 °C
